Data as given in patent US20230190704A1, “DRUG DELIVERY SYSTEM BASED ON CALCIUM PHOSPHATE NANOPARTICLES FUNCTIONALIZED WITH BIOACTIVE COMPOUNDS FROM EUPHORBIA EXTRACT AND THE USES THEREOF” (CELLBITEC, S.L., priority 2020, published 2023).
In brackets after ≈: the same amount, converted by molar mass.

Tests used:
[1] = test system: T84 human colon adenocarcinoma cell line; assay: Antiproliferative SRB assay of nanoparticles and isolated compounds in T84 cells; type: cell-based; settings: T84, isolated compound, 72 h
Protocol: The human colon adenocarcinoma cell line T84was purchased from the American Type Culture Collection (Rockville, MD, USA). The non-tumor colon cell line CCD18 (human colon epithelial cell line) was used as control. All cell lines were grown in Dulbecco’s Modified Eagle’s Medium (DMEM) supplemented with 10% heat-inactivated fetal bovine serum (FBS) and ATB (antibiotic, streptomycin + amphotericin B) at 1% and maintained in an incubator at 37° C. and 5% CO2 humidified atmosphere.
Cells were seeded in 48-well plates with DMEM (Dulbecco’s modified Eagles Medium) (300 ul) at a density of 4 x 10^3 cells/well in CCD18 and 5 x 10^3 cells/well in T84. After 24 hours, cell cultures were exposed 72 h to increasing concentrations of the nanoparticles dissolved in DMEM. In addition, bioactive components of the extract, Esculetin (range from 0.1 µg/ml to 5 µg/ml) and Euphorbetin (range from 0.02 µg/ml to 0.7 µg/ml), were combined at different concentration in order to determine their antitumor activity and to compare with nanoparticle activity and ethanolic extract activity. After incubation time, cells were fixed with trichloroacetic acid (TCA) at 10% for 20 minutes at 4° C. […] Finally, the optical density (OD) at 492 nm was measured in a spectrophotometer. Cell survival (%) was calculated according to the following equation: […]

[2] = test system: 15 in vitro models with tumor cells; settings: 15 in vitro tumor cell models; read-out: inhibitory dose 50 (IC50); cited from earlier work

Row | IC50 [1] [µg/mL] | Structure (SMILES) | IC50 [2] [µM]
1 | 0.27 (≈ 1.52 µM) | O=c1ccc2cc(O)c(O)cc2o1 [Esculetin, esculetin] | –
2 | – | CC(C)=CCC[C@@H](C)[C@@H]1CC[C@]2(C)C3=C(CC[C@@]12C)[C@@]1(C)CC[C@H](O)C(C)(C)[C@@H]1CC3 [Euphol] | 2 to 30
